Data taken from paper PMC9181126, “Design, Synthesis, Molecular Docking Analysis and Biological Evaluations of 4-[(Quinolin-4-yl)amino]benzamide Derivatives as Novel Anti-Influenza Virus Agents” (International Journal of Molecular Sciences, 2022).

Key:
[1] = in vitro; type: cell-based; details: human
Description: (§1) The 3-(4,5-dimethylthiazol-2-yl)-2,5-diphenyltetrazolium bromide (MTT) method was performed to assess the cytotoxicity of target compounds in MDCK cells and HEK293T cells. Firstly, MDCK cells or HEK293T cells were seeded into the 96-well plate. Then, the media containing test compounds replaced the growth media after 48 h. Incubate MDCK cells or HEK293T cells with test compounds for 72 h at 37 °C in a humidified 5% CO2 incubator. Later, MTT solution (5 mg/mL in PBS) was added into each well and plates were incubated for 4 h at 37 °C. Then, add a solubilization solution to lyse cells. Finally, absorbance was read at 620 nm using an ELISA plate reader (Tecan Sunrise) after 3 h of further incubation at 37 °C. We set the values obtained from the wells treated with only DMSO as 100% of viable cells.

[2] = test system: HEK293T cells; test: in vitro; type: cell-based; details: human, 72 h
Description: as §1

[3] = test system: influenza virus A/WSN/33 (H1N1); test: Plaque inhibition assay in MDCK cells; type: cell-based; details: MDCK, read-out: Plaque Inhibition Assay (A/WSN/33, H1N1) Inhibition Rate; for inhibition at 100 µM: concentration 100 µM; for inhibition at 25 µM: concentration 25 µM
[4] = test system: influenza virus A/WSN/33 (H1N1); test: microbe, parasite or virus in culture; type: cell-based; details: MDCK, 72 h; for inhibition at 12.5 µM / inhibition at 25 µM / inhibition at 50 µM / inhibition at 100 µM: H1N1|WSN, read-out: Antiviral activity in CPE assay; for EC50: read-out: Cytopathic Effect Assay (A/WSN/33, H1N1) EC50
[5] = in vitro; type: cell-based, canine; details: dog
Description: as §1

[6] = test system: MDCK cells; test: in vitro; type: cell-based, canine; details: dog, 72 h
Description: as §1

Compound	melting point	CC50 at 72 h [1]	HEK293T cells survival rate ([2]; 3.125 µmol·L−1)	HEK293T cells survival rate ([2]; 6.25 µmol·L−1)	HEK293T cells survival rate ([2]; 12.5 µmol·L−1)	HEK293T cells survival rate ([2]; 25 µmol·L−1)	HEK293T cells survival rate ([2]; 50 µmol·L−1)	HEK293T cells survival rate ([2]; 100 µmol·L−1)	inhibition at 100 µM [3]	inhibition at 12.5 µM [4]	inhibition at 25 µM [4]	inhibition at 50 µM [4]	inhibition at 100 µM [4]	EC50 [4]	CC50 at 72 h [5]	MDCK cells survival rate ([6]; 12.5 µmol·L−1)	MDCK cells survival rate ([6]; 25 µmol·L−1)	MDCK cells survival rate ([6]; 50 µmol·L−1)	MDCK cells survival rate ([6]; 100 µmol·L−1)	inhibition at 25 µM [3]	other results
O=C(NCc1ccccc1)c1ccc(Nc2ccnc3cc(C(F)(F)F)ccc23)cc1 [Compound G11, N-Benzyl-4-{[7-(trifluoromethyl)quinolin-4-yl]amino}benzamide]	263.4 to 265.8 °C	> 100 µM	129.49±22.76%	101.78±7.08%	105.25±12.82%	108.76±5.63%	103.77±9.35%	86.44±8.60%	50%	47.7 ± 9.63%	52.4 ± 3.44%	44.1 ± 1.38%	47.3 ± 0.92%	7.17 ± 1.53 µM	> 100 µM	148.07±0.17%	123.28±5.69%	127.54±0.33%	137.86±9.32%	–	–
Cc1ccccc1N1CCN(C(=O)c2ccc(Nc3ccnc4cc(C(F)(F)F)ccc34)cc2)CC1 [Compound G13, [4-(O-tolyl)piperazin-1-yl]{4-{[7-(trifluoromethyl)quinolin-4-yl]amino}phenyl}methanone]	194.7 to 195.6 °C	> 100 µM	99.14±6.42%	96.29±4.65%	89.92±2.14%	88.23±4.29%	80.60±2.01%	81.89±2.67%	< 10%	27 ± 2.2%	33.1 ± 4.47%	36.9 ± 4.41%	34.3 ± 7.15%	> 100 µM	> 100 µM	89.39±3.87%	87.73±16.36%	92.20±10.16%	65.91±7.51%	–	–
Cc1ccc(N2CCN(C(=O)c3ccc(Nc4ccnc5cc(C(F)(F)F)ccc45)cc3)CC2)cc1 [Compound G14, [4-(P-tolyl)piperazin-1-yl]{4-{[7-(trifluoromethyl)quinolin-4-yl]amino}phenyl}methanone]	192 to 193.8 °C	> 100 µM	105.78±7.34%	95.00±7.82%	89.38±1.59%	80.67±2.20%	76.77±5.03%	77.49±2.55%	–	16.43 ± 0.12%	20.7 ± 3.82%	23.4 ± 2.31%	27.9 ± 2.05%	> 100 µM	> 100 µM	82.40±6.45%	91.16±1.34%	72.26±17.99%	56.76±2.08%	< 10%	–
O=C(c1ccc(Nc2ccnc3cc(C(F)(F)F)ccc23)cc1)N1CCN(c2ccc(OC(F)(F)F)cc2)CC1 [Compound G15, {4-[4-(Trifluoromethoxy)phenyl]piperazin-1-yl}{4-{[7-(trifluoromethyl)quinolin-4-yl]amino}phenyl}methanone]	195.9 to 196.4 °C	> 100 µM	105.64±1.62%	104.46±0.45%	93.38±3.30%	103.00±3.15%	89.01±2.08%	81.59±1.91%	–	36.9 ± 0.82%	39.8 ± 4.98%	35.3 ± 1.81%	45.6 ± 5.12%	> 100 µM	> 100 µM	92.13±3.70%	82.80±5.22%	93.36±4.01%	76.18±1.27%	–	inhibition at 50 µM ([3]; concentration 50 µM): 61%
CCOc1ccc(N2CCN(C(=O)c3ccc(Nc4ccnc5cc(C(F)(F)F)ccc45)cc3)CC2)cc1 [Compound G18, [4-(4-Ethoxyphenyl)piperazin-1-yl]{4-{[7-(trifluoromethyl)quinolin-4-yl]amino}phenyl}methanone]	210 to 212.3 °C	> 100 µM	98.42±9.98%	87.82±9.55%	70.43±2.98%	65.43±6.72%	72.68±1.96%	86.90±1.67%	–	42.8 ± 0.57%	39.5 ± 1.72%	38.7 ± 4.29%	35.5 ± 9.67%	> 100 µM	> 100 µM	112.99±2.36%	111.55±2.20%	138.28±6.89%	104.99±4.01%	16.3%	–
COc1ccccc1OCCNC(=O)c1ccc(Nc2ccnc3cc(C)ccc23)cc1 [Compound G21, N-[2-(2-Methoxyphenoxy)ethyl]-4-[(7-methylquinolin-4-yl)amino]benzamide]	209.6 to 210.6 °C	> 100 µM	117.39±1.03%	103.95±2.65%	105.56±6.72%	102.64±2.91%	110.67±8.55%	50.09±0.70%	11.5%	43 ± 7.31%	39.8 ± 7.16%	39.8 ± 6.58%	50.1 ± 5.45%	> 100 µM	> 100 µM	83.41±3.67%	80.18±7.27%	93.28±9.93%	88.84±3.59%	–	–
